The assay has as its target plasminogen activator (Pla) (Yersinia pestis, UniProt P17811). The assay is classed as biochemical.

Sequence of plasminogen activator (Pla) (P17811 21-312 limits assumed): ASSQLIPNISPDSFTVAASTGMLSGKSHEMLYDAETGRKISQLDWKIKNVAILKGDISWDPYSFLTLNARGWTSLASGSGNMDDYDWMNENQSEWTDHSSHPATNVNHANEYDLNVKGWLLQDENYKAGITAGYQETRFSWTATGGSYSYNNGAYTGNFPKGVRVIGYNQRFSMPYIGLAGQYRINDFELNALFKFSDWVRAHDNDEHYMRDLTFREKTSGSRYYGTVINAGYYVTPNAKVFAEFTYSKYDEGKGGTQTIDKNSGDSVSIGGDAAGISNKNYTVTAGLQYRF

Turning to pepstatin A, the “block of plasminogen activator activity” value is listed as “did not block”.

Values taken from patent publication US9187523B2 (priority 2006, dated 2015).
